The values below come from patent US20090306133A1, “New Acetyl Coenzyme A Carboxylase (ACC) Inhibitors And Uses In Treatments Of Obesity And Diabetes Mellitus - 087” (ASTRAZENECA AB, priority 2007, published 2009).

As usually defined, the IC50 is the point on the concentration scale where inhibition reaches its midpoint.

Format in all cases: biochemical
In experiment [1] the target is T1, Human recombinant Acetyl-CoA Carboxylase 2 (ACC2) (Homo sapiens, UniProt O00763). Put plainly: Assay X: ACC2 inhibition, inorganic phosphate (malachite green). The following applies: Assay X: 37° C., 1.5 h, 5 min pre-incubation. The method, then:
Human recombinant Acetyl-CoA Carboxylase 1 and Acetyl-CoA Carboxylase 2 (ACC1 and ACC2) were assayed by determining the amount of inorganic phosphate (Pi) generated. Pre-incubation of 15 μL enzyme together with 0.75 μL DMSO+/−compound for 5 min was done before the reaction was initiated by the addition of 10 μL substrate. […] After 1.5 h the reaction was stopped by addition of 74 μL of water followed by extensive mixing, split and transfer of 2×40 μL to a read-plate encompassing 30 μL distilled H2O per well (n=2→n=4). Colour reaction was initiated by addition of 30 μL malachite green reagent per well and allowed 15 min before absorbance reading of the plates at 660 nm. The malachite green reagent was prepared by mixing 16.4 mL ammonium molybdate solution (7.5%), 1.64 mL Tween (11%) with 82 mL Malachite Green/H2SO4-solution (0.7 g Malachite Green to 1000 mL of 10% (v/v) H2SO4).
All compounds were tested in triplicate at 10 different concentrations. Control compound (0, 50 and 100% effect) was included on each plate. […] Curve fitting was done using the following equation: y=(A+((B−A)/(1+((x/C)̂D)))) where A and B represents the curve bottom (% inhibition) and the total amplitude (% inhibition), respectively, whereas C and D are the apparent IC50 and curve slope, respectively.

Experiment [2] concerns the target T1, Human recombinant Acetyl-CoA Carboxylase 2 (ACC2). The experiment can be described thus: Assay Y: ACC2 inhibition, inorganic phosphate (Malachite Green). The note with it: Assay Y: room temperature, 3 hr, 15 min preincubation. The method in brief: (§1)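 Enzyme preincubated with compound 15 min before substrate addition; reaction run 3 h, then phosphate detected with Malachite Green at 670 nm after 10 min at room temperature. Triplicate 10-point titrations; IC50 by non-linear four-parameter curve fitting.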

In experiment [3] the target is Human recombinant Acetyl-CoA Carboxylase 1 (ACC1) (Homo sapiens, UniProt Q13085). Put plainly: Assay Y: ACC1 inhibition, inorganic phosphate (Malachite Green). The note with it: Assay Y: room temperature, 3 hr, 15 min preincubation. The gist of the method:
as §1

T1 sequence (O00763 whole entry): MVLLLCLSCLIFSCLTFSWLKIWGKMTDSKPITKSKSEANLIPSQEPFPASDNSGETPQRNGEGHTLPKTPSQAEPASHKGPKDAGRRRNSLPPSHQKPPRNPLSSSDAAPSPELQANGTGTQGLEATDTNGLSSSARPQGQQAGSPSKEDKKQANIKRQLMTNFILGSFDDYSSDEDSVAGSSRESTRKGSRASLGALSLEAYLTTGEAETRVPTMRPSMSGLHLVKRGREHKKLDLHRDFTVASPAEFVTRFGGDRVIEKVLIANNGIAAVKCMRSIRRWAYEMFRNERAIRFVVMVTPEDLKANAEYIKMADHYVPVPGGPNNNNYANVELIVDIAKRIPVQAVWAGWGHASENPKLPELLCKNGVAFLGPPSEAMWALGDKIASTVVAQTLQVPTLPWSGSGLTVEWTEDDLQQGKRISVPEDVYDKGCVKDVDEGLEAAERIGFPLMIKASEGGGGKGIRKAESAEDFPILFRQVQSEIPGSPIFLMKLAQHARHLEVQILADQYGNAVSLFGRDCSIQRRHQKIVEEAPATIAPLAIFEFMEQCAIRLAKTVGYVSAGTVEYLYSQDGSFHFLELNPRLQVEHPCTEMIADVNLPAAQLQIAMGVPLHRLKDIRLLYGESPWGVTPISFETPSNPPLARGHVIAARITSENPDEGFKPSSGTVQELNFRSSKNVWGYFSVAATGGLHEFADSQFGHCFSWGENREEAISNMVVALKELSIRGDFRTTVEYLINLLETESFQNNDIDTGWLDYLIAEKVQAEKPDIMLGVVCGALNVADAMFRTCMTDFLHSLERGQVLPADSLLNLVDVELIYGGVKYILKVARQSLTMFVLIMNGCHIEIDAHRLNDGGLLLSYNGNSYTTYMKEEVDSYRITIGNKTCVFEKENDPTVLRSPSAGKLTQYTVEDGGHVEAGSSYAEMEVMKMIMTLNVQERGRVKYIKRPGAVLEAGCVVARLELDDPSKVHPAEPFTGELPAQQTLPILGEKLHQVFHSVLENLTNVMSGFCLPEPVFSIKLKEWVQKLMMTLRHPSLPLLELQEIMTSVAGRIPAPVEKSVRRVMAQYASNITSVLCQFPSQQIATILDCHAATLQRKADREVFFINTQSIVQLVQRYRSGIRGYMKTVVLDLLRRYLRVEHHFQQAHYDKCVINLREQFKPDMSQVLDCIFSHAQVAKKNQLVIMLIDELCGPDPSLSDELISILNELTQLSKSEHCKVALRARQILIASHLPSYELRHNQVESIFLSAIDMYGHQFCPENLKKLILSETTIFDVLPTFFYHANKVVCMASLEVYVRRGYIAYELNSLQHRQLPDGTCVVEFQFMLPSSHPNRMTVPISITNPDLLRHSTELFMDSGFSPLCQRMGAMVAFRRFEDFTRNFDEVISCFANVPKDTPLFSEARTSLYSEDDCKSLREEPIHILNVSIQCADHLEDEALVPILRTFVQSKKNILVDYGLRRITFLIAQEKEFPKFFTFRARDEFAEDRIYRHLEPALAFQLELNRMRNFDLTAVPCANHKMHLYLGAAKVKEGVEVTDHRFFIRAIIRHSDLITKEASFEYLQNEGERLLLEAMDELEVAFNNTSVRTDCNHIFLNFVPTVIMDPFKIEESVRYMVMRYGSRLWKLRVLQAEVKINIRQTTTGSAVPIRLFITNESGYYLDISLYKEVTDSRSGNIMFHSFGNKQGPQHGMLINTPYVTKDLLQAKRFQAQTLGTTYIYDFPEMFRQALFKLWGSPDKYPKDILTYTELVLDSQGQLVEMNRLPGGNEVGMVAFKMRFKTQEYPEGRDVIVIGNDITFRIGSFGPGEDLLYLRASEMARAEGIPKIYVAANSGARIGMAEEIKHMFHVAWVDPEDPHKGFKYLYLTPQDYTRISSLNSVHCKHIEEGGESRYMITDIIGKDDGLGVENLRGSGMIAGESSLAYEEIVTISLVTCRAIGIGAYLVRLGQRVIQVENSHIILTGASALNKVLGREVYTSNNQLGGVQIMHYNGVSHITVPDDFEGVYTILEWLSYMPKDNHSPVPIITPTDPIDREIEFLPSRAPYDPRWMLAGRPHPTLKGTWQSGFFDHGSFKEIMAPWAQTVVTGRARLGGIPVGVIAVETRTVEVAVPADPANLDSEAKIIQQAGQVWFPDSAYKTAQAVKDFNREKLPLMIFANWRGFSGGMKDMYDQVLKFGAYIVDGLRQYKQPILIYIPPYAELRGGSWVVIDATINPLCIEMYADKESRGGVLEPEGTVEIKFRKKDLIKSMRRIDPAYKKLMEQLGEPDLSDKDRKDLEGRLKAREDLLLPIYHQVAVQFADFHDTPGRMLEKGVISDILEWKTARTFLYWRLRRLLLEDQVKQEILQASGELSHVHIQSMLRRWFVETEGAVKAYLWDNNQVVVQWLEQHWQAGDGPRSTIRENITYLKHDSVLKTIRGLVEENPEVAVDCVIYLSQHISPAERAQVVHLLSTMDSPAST

As for `CC(C)(C)OC(=O)NC[C@H]1CC[C@H](CNC(=O)c2cc(-c3ccc(OCC4CCOC4)nc3)nc3ccccc23)CC1` (stereo partly drawn) [Example 173, tert-Butyl [(trans-4-{[({2-[6-(tetrahydrofuran-3-ylmethoxy)pyridin-3-yl]quinolin-4-yl}carbonyl)amino]methyl}cyclohexyl)methyl]carbamate], in experiment [1], the IC50 came out at 0.41 µM.
In the case of `CC(C)(C)OC(=O)NC[C@H]1CC[C@H](CNS(=O)(=O)c2ccsc2)CC1` [Example 74, tert-Butyl [(trans-4-{[(3-thienylsulfonyl)amino]methyl}cyclohexyl)methyl]-carbamate], the half-maximal inhibitory concentration (IC50) in experiment [2] was 9.49 µM; in experiment [3] it was > 20 µM.
Regarding `CSc1ccc(-c2cc(C(=O)NC[C@H]3CC[C@H](CNC(=O)OC(C)(C)C)CC3)c3ccccc3n2)cc1` [Example 24, tert-Butyl [(trans-4-{[({2-[4-(methylthio)phenyl]quinolin-4-yl}carbonyl)amino]-methyl}cyclohexyl)methyl]carbamate], the IC50 is 0.49 µM in experiment [2] and 1.35 µM in experiment [3].
Take `CN1CCN(c2ccc(-c3cc(C(=O)NC[C@H]4CC[C@H](CNC(=O)OC5CCOC5)CC4)c4ccccc4n3)cn2)CC1` (relative stereo) [Example 114, Tetrahydrofuran-3-yl-[(trans-4-{[({2-[6-(4-methylpiperazin-1-yl)pyridin-3-yl]quinolin-4-yl}carbonyl)amino]methyl}cyclohexyl)methyl]carbamate]: the IC50 amounted to 0.33 µM in experiment [2] and 2.38 µM in experiment [3].
Regarding `CC(C)(C)OC(=O)NC[C@H]1CC[C@H](CNC(=O)c2cc(N3CCC(O)CC3)nc3ccccc23)CC1` [Example 187, tert-Butyl({trans-4-[({[2-(4-hydroxypiperidin-1-yl)quinolin-4-yl]carbonyl}amino)-methyl]cyclohexyl}-methyl)carbamate], the IC50 in experiment [2] is 0.56 µM; in experiment [3], 8.48 µM.
For the compound `CC(C)(C)OC(=O)NC[C@H]1CC[C@H](CN(CCc2ccccc2)S(=O)(=O)c2ccc3ccccc3c2)CC1` [Example 80, tert-Butyl [(trans-4-{[(2-naphthylsulfonyl)(2-phenylethyl)amino]methyl}cyclohexyl)-methyl]carbamate], the IC50 in experiment [2] was 3.01 µM; in experiment [3] it was > 20 µM.
For `CCOC(=O)NC[C@H]1CC[C@H](CNC(=O)c2cc(-c3ccc(C)cc3)nc3ccccc23)CC1` [Example 28, Ethyl ({trans-4-[({[2-(4-methylphenyl)quinolin-4-yl]carbonyl}amino)methyl]cyclo-hexyl}methyl)carbamate], the values for the IC50 in experiment [2] and in experiment [3] were 1.17 µM and 6 µM, respectively.
`CC(C)(C)OC(=O)NC[C@H]1CC[C@H](CNC(=O)c2cc(N3CCN(CCO)CC3)nc3ccccc23)CC1` [Example 185, tert-Butyl [(trans-4-{[({2-[4-(2-hydroxyethyl)piperazin-1-yl]quinolin-4-yl}carbonyl)amino]methyl}cyclohexyl)methyl]carbamate]: the IC50 in experiment [2] was 1.12 µM; in experiment [3], > 20 µM.
For `CC(C)(C)OC(=O)NC[C@H]1CC[C@H](CNC(=O)c2cc(-c3ccc(C(=O)O)cc3)nc3ccccc23)CC1` [Example 93, 4-(4-{[(trans-4-{[(tert-Butoxycarbonyl)amino]methyl}cyclohexyl)methyl]carbamoyl}-quinolin-2-yl)benzoic acid], the IC50 in experiment [2] was determined as 0.17 µM; in experiment [3], 1.85 µM.
On to `CC(C)(C)OC(=O)NC[C@H]1CC[C@H](CNC(=O)c2cc(-c3cncnc3)nc3ccccc23)CC1` [Example 33, tert-Butyl {[trans-4-({[(2-pyrimidin-5-ylquinolin-4-yl)carbonyl]amino}methyl)cyclo-hexyl]methyl}carbamate], for which the IC50 in experiment [2] amounted to 1.14 µM; in experiment [3], 3.51 µM.
The corresponding values for `CC(C)(C)OC(=O)NC[C@H]1CC[C@H](CNC(=O)c2cc(-c3cccnc3)nc3ccccc23)CC1` [Example 16, tert-Butyl {[trans-4-({[(2-pyridin-3-ylquinolin-4-yl)carbonyl]amino}methyl)cyclo-hexyl]methyl}carbamate] are 0.32 µM and 2.03 µM.
Take `COc1cccc(-c2cc(C(=O)NC[C@H]3CC[C@H](CNC(=O)OC(C)(C)C)CC3)c3ccccc3n2)c1` [Example 22, tert-Butyl ({trans-4-[({[2-(3-methoxyphenyl)quinolin-4-yl]carbonyl}amino)-methyl]cyclohexyl}methyl)carbamate]: the IC50 in experiment [2] was determined as 0.31 µM; in experiment [3], 1.01 µM.
With `CN(C)CCCOc1ccc(-c2cc(C(=O)NC[C@H]3CC[C@H](CNC(=O)OC(C)(C)C)CC3)c3ccccc3n2)cn1` [Example 10, tert-Butyl {[trans-4-({[(2-{6-[3-(dimethylamino)propoxy]pyridin-3-yl}quinolin-4-yl)carbonyl]amino}methyl)cyclohexyl]methyl}carbamate], the half-maximal inhibitory concentration (IC50) came to 0.04 µM in experiment [2] and 0.3 µM in experiment [3].
With `CC(C)(C)OC(=O)NC[C@H]1CC[C@H](CNC(=O)c2ccnc(-c3ccc(C(N)=O)cc3)c2)CC1` [Example 50, tert-Butyl {[trans-4-({[2-(4-carbamoylphenyl)isonicotinoyl]amino}methyl)cyclohexyl]-methyl}carbamate], the IC50 in experiment [2] was found to be 6.82 µM; in experiment [3], 5.3 µM.
`CC(=O)Nc1ccc(S(=O)(=O)NC[C@H]2CC[C@H](CNC(=O)OC(C)(C)C)CC2)cc1` [Example 73, tert-Butyl {[trans-4-({[(4-acetamidophenyl)sulfonyl]amino}methyl)cyclohexyl]-methyl}carbamate]: the IC50 was 5.03 µM in experiment [2] and > 20 µM in experiment [3].
The corresponding values for `CN(C)CCOc1ccc(-c2cc(C(=O)NC[C@H]3CC[C@H](CNC(=O)OC(C)(C)C)CC3)c3ccccc3n2)cn1` [Example 184, tert-Butyl{[trans-4-({[(2-{6-[2-(dimethylamino)ethoxy]pyridin-3-yl}quinolin-4-yl)carbonyl]amino}-methyl)cyclohexyl]-methyl}carbamate] are 0.04 µM and 0.21 µM.
In the case of `Cc1noc(C)c1-c1cc(C(=O)NC[C@H]2CC[C@H](CNC(=O)OC(C)(C)C)CC2)c2ccccc2n1` [Example 15, tert-Butyl ({trans-4-[({[2-(3,5-dimethylisoxazol-4-yl)quinolin-4-yl]carbonyl}amino)-methyl]cyclohexyl}methyl)carbamate], the IC50 was 2.87 µM in experiment [2] and > 20 µM in experiment [3].
As for `CC(=O)Nc1cccc2c(S(=O)(=O)NC[C@H]3CC[C@H](CNC(=O)OC(C)(C)C)CC3)cccc12` [Example 71, tert-Butyl {[trans-4-({[(5-acetamido-1-naphthyl)sulfonyl]amino}methyl)cyclohexyl]-methyl}carbamate], the IC50 in experiment [2] stood at 2.45 µM; in experiment [3], 16.9 µM.
Take `CC(C)(C)OC(=O)NC[C@H]1CC[C@H](CNC(=O)c2ccnc(-c3cccc(Cl)c3)c2)CC1` [Example 51, tert-Butyl {[trans-4-({[2-(3-chlorophenyl)isonicotinoyl]amino}methyl)cyclohexyl]-methyl}carbamate]: the IC50 is 5.67 µM in experiment [2] and > 20 µM in experiment [3].
Take `NS(=O)(=O)c1ccc(-c2cc(C(=O)NC[C@H]3CC[C@H](CNC(=O)OC4CCOCC4)CC3)c3ccccc3n2)cc1` [Example 138, Tetrahydro-2H-pyran-4-yl[(trans-4-{[({2-[4-(aminosulfonyl)phenyl]-quinolin-4-yl}carbonyl)amino]-methyl}cyclohexyl)-methyl]carbamate]: the IC50 in experiment [2] worked out at 0.71 µM; in experiment [3], 3.76 µM.
The corresponding values for `COC(=O)NCc1ccc(-c2cc(C(=O)NC[C@H]3CC[C@H](CNC(=O)OC(C)(C)C)CC3)c3ccccc3n2)cc1` [Example 104, Methyl [4-(4-{[(trans-4-{[(tert-butoxycarbonyl)amino]methyl}cyclohexyl)methyl]-carbamoyl}quinolin-2-yl)benzyl]carbamate] are 0.11 µM and 1.6 µM.
As to `CNS(=O)(=O)c1ccc(-c2cc(C(=O)NC[C@H]3CC[C@H](CNC(=O)OC4CCOCC4)CC3)c3ccccc3n2)cc1` [Example 136, Tetrahydro-2H-pyran-4-yl{[trans-4-({[(2-{4-[(methylamino)sulfonyl]phenyl}quinolin-4-yl)carbonyl]amino}methyl)cyclohexyl]methyl}-carbamate], the figures for the IC50 in experiment [2] and in experiment [3] were 0.62 µM and 3.07 µM, respectively.
As to `CCCOC(=O)NC[C@H]1CC[C@H](CNC(=O)c2cc(-c3ccncc3)nc3ccccc23)CC1` [Example 58, Propyl {[trans-4-({[(2-pyridin-4-ylquinolin-4-yl)carbonyl]amino}methyl)cyclohexyl]-methyl}carbamate], the half-maximal inhibitory concentration (IC50) was found to be 0.81 µM in experiment [2] and 2.1 µM in experiment [3].
